Assay results published in patent EP0565674B1, “METHOD FOR MEMORY ENHANCEMENT AND QUALITY OF LIFE IMPROVEMENT” (CITY OF HOPE, priority 1991, dated 1993).
Where a name gives a salt, the structure may show the parent alone.

Columns and labels:
CD-1 male mice [1] = experiment: T-maze footshock active avoidance training (FAAT), retention after 1 week, well-trained mice, prevention of DMSO-induced amnesia; settings: for trials to criterion compared with DMSO alone / saline alone: 3.5X10^-10 mol icv 2-3 min after FAAT, in DMSO, retention tested one week later, groups of 15 mice
Method: (§1) Test Animals. After 1 week in the laboratory, CD-1 male mice obtained from Charles River Breeding Laboratories were caged individually 24-48 hr prior to training and remained singly housed until retention was tested 1 week later. Animal rooms were on a 12-hr light/dark cycle with lights going on at the hour of 0600.
(§2) With the exception of pregnenolone sulfate, all of the substances were dissolved in appropriate amounts of pure DMSO and 2 µl of DMSO alone or containing test substance was injected icv into each mouse after training. Pregnenolone sulfate was dissolved in DMSO and diluted with physiological saline to a final concentration of 1% DMSO or less in saline, and the results of, injections of 2 µl of solutions containing pregnenolone sulfate were compared with those obtained with 2 µl of such saline solutions alone.
(§3) Apparatus, Training and Testing Procedures. The T-maze used for footshock active avoidance training (FAAT) consisted of a black plastic alley (46 cm long) with a start box at one end and two goal boxes (17.5 cm long) at the other. The start box was separated from the alley by a plastic guillotine door that prevented movement down the alley until training began. The alley was 12.5 cm deep and 9.8 cm wide. An electrifiable stainless steel rod floor ran throughout the maze.
(§4) Mice were not permitted to explore the maze before training. A block of training trials began when a mouse was placed in the start box. The guillotine door was raised and a muffled doorbell-type buzzer sounded simultaneously; footshock was 5 sec later through a scrambled grid floor shocker (Colbourn Instruments, model E13-08). The goal box first entered during the first set of trials was designated as "incorrect", and footshock was continued until the mouse entered the other goal box, which in all subsequent trials was designated "correct" for the particular mouse. At the end of each group of trials, the mouse was removed to its home cage.
As training proceeded, a mouse made one of two types of responses. A response latency longer than 5 sec was classed as an escape from the footshock. A response latency less than or equal to 5 sec was considered an avoidance, since the mouse avoided receiving a footshock. Two exclusion criteria were applied to reduce learning variability among mice, as follows. On the first training trials, mice with escape latencies greater than 20 sec were discarded. Mice not having at least one errorless escape latency between 1.5 and 3.5 sec on training trials 3 or 4 were excluded. The total exclusions were fewer than 15%. Mice received five such training trials. One week after training and post-trial administration of vehicle alone or vehicle containing test substance, T-maze training was resumed until each mouse made five avoidance responses in six consecutive training trials (trials to criterion). The recall score was taken to be the percentage of tested mice remembering original training.
In these instances, training was performed under conditions that tend to maximize learning (sound intensity, 65 decibels; footshock current, 0.35 mA; intertrial interval, 45 s).
Surgical Procedure in Preparation for Intracerebroventricular (icv) Administration of Substances. Icv injection was the mode of administration of test substances because this eliminates problems of differential penetration of the blood-brain barrier. The following procedure was performed 24-48 hr prior to training.

CD-1 male mice [2] = experiment: T-maze footshock active avoidance training (FAAT), retention after 1 week, weakly trained mice, memory enhancement
Method: as §1, §2, §3, §4
As training proceeded, a mouse made one of two types of responses. A response latency longer than 5 sec was classed as an escape from the footshock. […]

Row | SMILES | trials to criterion compared with DMSO alone / saline alone (CD-1 male mice [1]) | further results
1 | C[C@]12CCC(=O)C=C1CC[C@@H]1[C@@H]2CC[C@]2(C)C(=O)CC[C@@H]12 [androstenedione, 4,androsten-3,17-dione] | significantly fewer trials to criterion than mice receiving DMSO alone | 
2 | CC(=O)[C@H]1CC[C@H]2[C@@H]3CC=C4C[C@@H](O)CC[C@]4(C)[C@H]3CC[C@]12C [pregnenolone, 5-pregnen-3β-ol-20-one] | significantly fewer trials to criterion than mice receiving DMSO alone | trials to criterion (CD-1 male mice [2]; weakly trained mice, 3.5X10^-15 mol per mouse icv, p < 0.05 vs vehicle controls (9.30±0.47), mean ± SEM): 7.70±0.55; potency on a molar basis relative to the other two substances tested (DHEA, testosterone) (CD-1 male mice [1]; from dose-response curves): at least 100 times
3 | CC(=O)C1CCC2C3CC=C4CC(OS(=O)(=O)O)CCC4(C)C3CCC12C (stereo not drawn) [pregnenolone sulfate, 5-pregnen-3β-ol-20-one sulfate, sodium salt] |  | potency relative to DHEA (CD-1 male mice [2]; memory enhancement in mice): ~1000 times; potency relative to pregnenolone (CD-1 male mice [2]; memory enhancement in mice): approximately 10 times
4 | C[C@]12CCC(=O)C=C1CC[C@@H]1[C@@H]2[C@@H](O)C[C@]2(C=O)[C@@H](C(=O)CO)CC[C@@H]12 [aldosterone, 4-pregnen-11β,21-diol-3,18,20-trione] | significantly fewer trials to criterion than mice receiving DMSO alone | 
5 | C[C@]12CCC(=O)C[C@@H]1CC[C@@H]1[C@@H]2CC[C@]2(C)[C@@H](O)CC[C@@H]12 [dihydrotestosterone, 5α-androstan-17β-ol-3-one] | significantly fewer trials to criterion than mice receiving DMSO alone | 
6 | C[C@]12CC[C@H](OS(=O)(=O)O)CC1=CC[C@@H]1[C@@H]2CC[C@]2(C)C(=O)CC[C@@H]12 [DHEAS, dehydroepiandrosterone sulfate] | significantly fewer trials to criterion than mice receiving DMSO alone | 
7 | C[C@]12CC[C@@H]3c4ccc(O)cc4CC[C@H]3[C@@H]1CC[C@@H]2O [estradiol, 1,3,5(10)-estratrien-3,17β-diol] | significantly different from those obtained with DMSO alone and significantly greater than those receiving saline alone | 
8 | C[C@]12CC[C@H]3[C@@H](CCC4=CC(=O)CC[C@@]43C)[C@@H]1CC[C@@H]2O [testosterone, 4-androsten-17β-ol-3-one] | significantly fewer trials to criterion than mice receiving DMSO alone | 
9 | C[C@]12CC[C@@H]3c4ccc(O)cc4CC[C@H]3[C@@H]1CCC2=O [estrone, 1,3,5(10)-estratrien-3-ol-17-one] | significantly different from those obtained with DMSO alone and significantly greater than those receiving saline alone | 
10 | CC(=O)[C@H]1CC[C@H]2[C@@H]3CCC4=CC(=O)CC[C@]4(C)[C@H]3CC[C@]12C [progesterone, 4-pregnen-3,20-dione] | significantly different from those obtained with DMSO alone and significantly greater than those receiving saline alone | 
11 | C[C@]12CC[C@H](O)CC1=CC[C@@H]1[C@@H]2CC[C@]2(C)C(=O)CC[C@@H]12 [DHEA, 5-androsten-3β-ol-17-one] | significantly fewer trials to criterion than mice receiving DMSO alone | 
